US9347934B2, “Assays for identifying compounds that modulate bitter taste” (CHROMOCELL CORPORATION, priority 2011, dated 2016)

Assays:
Assay type in all cases: cell-based
TAS2R5 = biological target: T1, TAS2R5 (Homo sapiens, UniProt Q9NYW4); assay: Calcium fluorescence functional assay, TAS2R5 cell line; conditions: 20 mM tastant; cell line expressing human TAS2R5 and mouse Gα15
T1 construct: expressed in transfected cells
T1 sequence (Q9NYW4 1-299): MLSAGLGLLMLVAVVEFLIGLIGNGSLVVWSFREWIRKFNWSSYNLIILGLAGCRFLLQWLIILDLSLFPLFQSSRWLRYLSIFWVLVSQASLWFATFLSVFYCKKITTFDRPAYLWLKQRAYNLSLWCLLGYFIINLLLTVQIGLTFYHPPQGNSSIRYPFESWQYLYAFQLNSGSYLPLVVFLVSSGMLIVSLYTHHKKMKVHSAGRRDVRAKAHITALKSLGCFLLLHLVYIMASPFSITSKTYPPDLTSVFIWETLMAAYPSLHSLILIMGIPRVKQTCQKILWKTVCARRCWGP
Procedure: (§1) Accordingly, each cell line of the panel expressed a human bitter taste receptor and mouse Gα15 signaling protein.
(§2) Probenecid was not included in the load solution.
(§3) After dye loading, cell plates were placed in a fluorescent plate reader (e.g., FDSS6000 (Hamamatsu, Japan)) and receptor stimulation was measured by adding 50 ul of 3× concentrated ligand/agonist stock. Fluorescence was monitored continuously for 10 s before agonist addition and for 100-250 s after stimulation with agonist.
(§4) Receptor Activation is defined as follows: % Activation=[((Maximum signal fluorescence−Minimum signal fluorescence)−(Maximum control fluorescence−Minimum control fluorescence))/(Maximum buffer fluorescence−Minimum buffer fluorescence)]*100 Functional Response=[(Maximum signal fluorescence−Minimum signal fluorescence)−(Maximum control fluorescence−Minimum control fluorescence)] • Signal Fluorescence: refers to the change in fluorescence seen with addition of ligand • Control fluorescence: refers to the change in fluorescence seen with addition of buffer (negative control) • Calcium signals from ligand and control were normalized to the basal fluorescence of the cells prior to the stimulation.
(§5) A concentration analysis was performed and EC50 values were calculated by nonlinear regression using the formula: Y=Bottom+(Top-Bottom)/(1+10^((Log EC50-X)*Hill Slope)), X=log of dose or concentration, Y=Response (increasing as X increases), Top=maximum signal, Bottom=minimum signal.

TAS2R10 = biological target: T2, TAS2R10 (Homo sapiens, UniProt Q9NYW0); assay: Calcium fluorescence functional assay, TAS2R10 cell line; conditions: 20 mM tastant; cell line expressing human TAS2R10 and mouse Gα15
T2 construct: expressed in transfected cells
T2 sequence (Q9NYW0 1-307): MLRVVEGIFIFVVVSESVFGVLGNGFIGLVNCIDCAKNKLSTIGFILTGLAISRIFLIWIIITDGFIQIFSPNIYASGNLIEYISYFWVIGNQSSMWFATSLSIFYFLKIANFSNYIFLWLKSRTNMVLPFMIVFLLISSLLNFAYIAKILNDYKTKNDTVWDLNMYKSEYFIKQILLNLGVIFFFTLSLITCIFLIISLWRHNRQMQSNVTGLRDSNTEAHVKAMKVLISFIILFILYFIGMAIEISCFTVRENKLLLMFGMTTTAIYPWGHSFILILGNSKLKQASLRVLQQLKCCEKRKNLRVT
Procedure: as §1, §2, §3, §4, §5

TAS2R16 = biological target: T3, TAS2R16 (Homo sapiens, UniProt Q9NYV7); assay: Calcium fluorescence functional assay, TAS2R16 cell line; conditions: 20 mM tastant; cell line expressing human TAS2R16 and mouse Gα15
T3 construct: expressed in transfected cells
T3 sequence (Q9NYV7 1-291): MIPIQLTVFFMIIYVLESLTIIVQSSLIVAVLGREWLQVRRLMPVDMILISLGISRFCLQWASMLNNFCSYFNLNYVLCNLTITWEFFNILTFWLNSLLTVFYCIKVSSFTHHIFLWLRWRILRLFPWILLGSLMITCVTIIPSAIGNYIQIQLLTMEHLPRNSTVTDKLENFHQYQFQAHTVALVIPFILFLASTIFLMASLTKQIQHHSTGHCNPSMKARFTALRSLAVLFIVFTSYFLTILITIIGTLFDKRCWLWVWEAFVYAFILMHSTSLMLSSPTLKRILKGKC
Procedure: as §1, §2, §3, §4, §5

TAS2R47 = biological target: T4, TAS2R47 (Homo sapiens, UniProt P59541); assay: Calcium fluorescence functional assay, TAS2R47 cell line; conditions: 20 mM tastant; cell line expressing human TAS2R47 and mouse Gα15
T4 construct: expressed in transfected cells
T4 sequence (P59541 1-319): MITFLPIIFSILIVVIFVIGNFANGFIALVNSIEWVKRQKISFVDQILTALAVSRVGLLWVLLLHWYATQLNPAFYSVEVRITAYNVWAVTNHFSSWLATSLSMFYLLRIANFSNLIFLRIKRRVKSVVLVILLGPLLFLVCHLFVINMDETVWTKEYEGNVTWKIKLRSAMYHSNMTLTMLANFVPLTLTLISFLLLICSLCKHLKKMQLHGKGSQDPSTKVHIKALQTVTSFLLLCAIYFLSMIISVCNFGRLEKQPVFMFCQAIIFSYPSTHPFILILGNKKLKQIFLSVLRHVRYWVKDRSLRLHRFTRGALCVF
Procedure: as §1, §2, §3, §4, §5

TAS2R50 = biological target: T5, TAS2R50 (Homo sapiens, UniProt P59544); assay: Calcium fluorescence functional assay, TAS2R50 cell line; conditions: 20 mM tastant; cell line expressing human TAS2R50 and mouse Gα15
T5 construct: expressed in transfected cells
T5 sequence (P59544 1-299): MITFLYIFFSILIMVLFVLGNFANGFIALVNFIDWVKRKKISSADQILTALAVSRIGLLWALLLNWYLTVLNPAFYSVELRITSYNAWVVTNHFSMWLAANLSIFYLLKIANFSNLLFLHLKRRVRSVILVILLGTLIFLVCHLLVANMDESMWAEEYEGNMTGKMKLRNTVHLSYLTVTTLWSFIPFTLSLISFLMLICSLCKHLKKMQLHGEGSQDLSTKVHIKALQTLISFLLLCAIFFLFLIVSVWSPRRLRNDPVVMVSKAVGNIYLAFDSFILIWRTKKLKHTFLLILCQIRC
Procedure: as §1, §2, §3, §4, §5

TAS2R60 = biological target: T6, TAS2R60 (Homo sapiens, UniProt P59551); assay: Calcium fluorescence functional assay, TAS2R60 cell line; conditions: for TAS2R60 bitter taste receptor activity (changes in intracellular calcium): 20 mM tastant, cell line expressing human TAS2R60 and mouse Gα15
T6 construct: expressed in transfected cells
T6 sequence (P59551 1-318): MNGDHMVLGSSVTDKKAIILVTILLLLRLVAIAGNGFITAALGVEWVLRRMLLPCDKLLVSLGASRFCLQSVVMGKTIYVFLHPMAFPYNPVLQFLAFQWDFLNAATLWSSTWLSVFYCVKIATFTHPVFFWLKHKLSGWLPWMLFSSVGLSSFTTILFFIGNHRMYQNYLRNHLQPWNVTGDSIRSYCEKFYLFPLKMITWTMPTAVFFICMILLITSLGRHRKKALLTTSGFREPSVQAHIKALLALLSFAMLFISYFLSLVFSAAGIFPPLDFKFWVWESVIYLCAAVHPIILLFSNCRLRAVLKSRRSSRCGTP
Procedure: as §1, §2, §3, §4, §5

Row | Structure (SMILES) | TAS2R5 bitter taste receptor activity (changes in intracellular calcium) (TAS2R5) | TAS2R10 bitter taste receptor activity (changes in intracellular calcium) (TAS2R10) | TAS2R16 bitter taste receptor activity (changes in intracellular calcium) (TAS2R16) | TAS2R47 bitter taste receptor activity (changes in intracellular calcium) (TAS2R47) | TAS2R50 bitter taste receptor activity (changes in intracellular calcium) (TAS2R50) | TAS2R60 bitter taste receptor activity (changes in intracellular calcium) (TAS2R60) | EC50 (TAS2R60; increasing concentrations of KCl, TAS2R60 cell line (FIG. 3), read-out: EC50 value, activation of TAS2R60) [mM]
1 | CC1=CC(=O)NS(=O)(=O)O1 [Acesulfame K] | did not induce | did not induce | induced | did not induce | did not induce | did not induce | 
2 | [Cl-].[K+] [KCl, potassium chloride] | did not induce | did not induce | did not induce | did not induce | did not induce | induced | 5 to 15
3 | CC(O)C(=O)[O-].[K+] (stereo not shown) [Potassium lactate, potassium lactate] | did not induce | did not induce | did not induce | did not induce | did not induce | induced | 
